Data taken from patent US20250179061A1 (SIRONAX LTD., priority 2022, published 2025).

system: HT-29 cells; assay: HT-29 necroptosis cell viability assay (TNF-α/SMAC mimetic/zVAD-FMK, CellTiter-Glo); format: cell-based; conditions: Homo sapiens, HT-29, HT-29 cells, necroptosis induced by TNF-α/SMAC mimetic/zVAD-FMK, CellTiter-Glo; read-out: Activity (IC50 class)
Outline: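 Necroptosis was triggered by TNF-α (10 ng/ml), SMAC mimetic (6 μM) and zVAD-FMK (10 μM) in serum-free medium during 20 h compound exposure (10 concentrations, threefold steps) of HT-29 cells. IC50 from duplicate dose-responses uses CellTiter-Glo ATP luminescence as viability read-out.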

Row | Structure (SMILES) | IC50
1 | COC(=O)c1nc(C)c(Oc2ncc(-n3ncn(Cc4c(F)cccc4F)c3=O)cc2Cl)s1 [Example 649, methyl 5-((3-chloro-5-(4-(2,6-difluorobenzyl)-5-oxo-4,5-dihydro-1H-1,2,4-triazol-1-yl)pyridin-2-yl)oxy)-4-methylthiazole-2-carboxylate] | < 100 nM
2 | Cc1c(CC#N)noc1Oc1ccc(-n2ncn(Cc3c(F)cccc3F)c2=O)cc1F [Example 650, 2-(5-(4-(4-(2,6-difluorobenzyl)-5-oxo-4,5-dihydro-1H-1,2,4-triazol-1-yl)-2-fluorophenoxy)-4-methylisoxazol-3-yl)acetonitrile] | < 100 nM
3 | Cc1nc(C(N)C(F)(F)F)sc1Oc1ccc(-n2ncn(Cc3c(F)cccc3F)c2=O)cc1F (stereo not drawn) [Example 651, 2-(4-((2-(1-amino-2,2,2-trifluoroethyl)-4-methylthiazol-5-yl)oxy)-3-fluorophenyl)-4-(2,6-difluorobenzyl)-2,4-dihydro-3H-1,2,4-triazol-3-one] | 100 to 1000 nM
4 | Cc1nc(C#N)sc1Oc1ncc(-n2ncn(Cc3c(F)cccc3F)c2=O)cc1Cl [Example 653, 5-[[3-chloro-5-[4-[(2,6-difluorophenyl)methyl]-5-oxo-1,2,4-triazol-1-yl]-2-pyridyl]oxy]-4-methyl-thiazole-2-carbonitrile] | 100 to 1000 nM
5 | CCOC(=O)c1nc(COc2ccc(-n3ncn(Cc4c(F)cccc4F)c3=O)cc2F)cs1 [Example 654, Ethyl 4-((4-(4-(2,6-difluorobenzyl)-5-oxo-4,5-dihydro-1H-1,2,4-triazol-1-yl)-2-fluorophenoxy)methyl)thiazole-2-carboxylate] | 1000 to 10000 nM
6 | N#CCc1nc(COc2ccc(-n3ncn(Cc4c(F)cccc4F)c3=O)cc2F)cs1 [Example 655, 2-[4-[[4-[4-[(2,6-difluorophenyl)methyl]-5-oxo-1,2,4-triazol-1-yl]-2-fluoro-phenoxy]methyl]thiazol-2-yl]acetonitrile] | 100 to 1000 nM
7 | O=C1NC2(CO1)CN(c1cc(Oc3ccc(-n4ncn(Cc5c(F)cccc5F)c4=O)cc3F)c(F)cn1)C2 [Example 656, 2-[4-[4-[4-[(2,6-difluorophenyl)methyl]-5-oxo-1,2,4-triazol-1-yl]-2-fluoro-phenoxy]-5-fluoro-2-pyridyl]-7-oxa-2,5-diazaspiro[3.4]octan-6-one] | < 100 nM
8 | Cc1ncn(Cc2ccc(-n3ncn(Cc4c(F)cccc4F)c3=O)cc2)c1C#N [Example 657, 3-[[4-[4-[(2,6-difluorophenyl)methyl]-5-oxo-1,2,4-triazol-1-yl]phenyl]methyl]-5-methyl-imidazole-4-carbonitrile] | < 100 nM
9 | O=c1n(Cc2c(F)cccc2F)cnn1-c1ccc(Oc2cncs2)cc1 [Example 658] | < 100 nM
10 | Nc1nc(COc2ccc(-n3ncn(Cc4c(F)cccc4F)c3=O)cc2F)cs1 [Example 659, 2-(4-((2-aminothiazol-4-yl)methoxy)-3-fluorophenyl)-4-(2,6-difluorobenzyl)-2,4-dihydro-3H-1,2,4-triazol-3-one] | 100 to 1000 nM
11 | CC(C)(C)CNC(=O)c1cc(Oc2ccc(-n3ncn(Cc4c(F)cccc4F)c3=O)cc2)ccn1 [Example 660, 4-(4-(4-(2,6-difluorobenzyl)-5-oxo-4,5-dihydro-1H-1,2,4-triazol-1-yl)phenoxy)-N-neopentylpicolinamide] | 100 to 1000 nM
12 | COc1cc(Oc2ccc(-n3ncn(Cc4c(F)cccc4F)c3=O)cc2)ccn1 [Example 661, 4-(2,6-difluorobenzyl)-2-(4-((2-methoxypyridin-4-yl)oxy)phenyl)-2,4-dihydro-3H-1,2,4-triazol-3-one] | 100 to 1000 nM
13 | O=c1n(Cc2c(F)cccc2F)cnn1-c1ccc(Oc2ccnc(Cl)c2)cc1 [Example 662, 2-(4-((2-chloropyridin-4-yl)oxy)phenyl)-4-(2,6-difluorobenzyl)-2,4-dihydro-3H-1,2,4-triazol-3-one] | 100 to 1000 nM
14 | Cc1nc(Br)nn1Cc1ccc(-n2ncn(Cc3c(F)cccc3F)c2=O)cc1 [Example 663, 2-(4-((3-bromo-5-methyl-1H-1,2,4-triazol-1-yl)methyl)phenyl)-4-(2,6-difluorobenzyl)-2,4-dihydro-3H-1,2,4-triazol-3-one] | 100 to 1000 nM
15 | Cc1nc(N2CC(C)(C#N)C2)cn1Cc1ccc(-n2ncn(Cc3c(F)cccc3F)c2=O)cc1 [Example 664, 1-(1-(4-(4-(2,6-difluorobenzyl)-5-oxo-4,5-dihydro-1H-1,2,4-triazol-1-yl)benzyl)-2-methyl-1H-imidazol-4-yl)-3-methylazetidine-3-carbonitrile] | 1000 to 10000 nM
16 | Cc1nc(N2CC(C)(C#N)C2)nn1Cc1ccc(-n2ncn(Cc3c(F)cccc3F)c2=O)cc1 [Example 665, 1-(1-(4-(4-(2,6-difluorobenzyl)-5-oxo-4,5-dihydro-1H-1,2,4-triazol-1-yl)benzyl)-5-methyl-1H-1,2,4-triazol-3-yl)-3-methylazetidine-3-carbonitrile] | 1000 to 10000 nM
17 | Cc1nc(Br)cn1Cc1ccc(-n2ncn(Cc3c(F)cccc3F)c2=O)cc1 [Example 666, 2-(4-((4-bromo-2-methyl-1H-imidazol-1-yl)methyl)phenyl)-4-(2,6-difluorobenzyl)-2,4-dihydro-3H-1,2,4-triazol-3-one] | < 100 nM
18 | Cc1nc(C(N)=O)sc1Oc1ccc(-n2nc3n(c2=O)C(c2ccc(F)cc2)CC3)cc1F (stereo not drawn) [Example 667, 5-(2-fluoro-4-(5-(4-fluorophenyl)-3-oxo-6,7-dihydro-3H-pyrrolo[1,2-c][1,2,4]triazol-2(5H)-yl)phenoxy)-4-methylthiazole-2-carboxamide] | < 100 nM
19 | COc1cncc(Oc2ccc(-n3ncn(Cc4c(F)cccc4F)c3=O)cc2)c1 [Example 671, 4-(2,6-difluorobenzyl)-2-(4-((5-methoxypyridin-3-yl)oxy)phenyl)-2,4-dihydro-3H-1,2,4-triazol-3-one] | < 100 nM
20 | O=c1n(Cc2c(F)cccc2F)cnn1-c1ccc(Oc2ccnc(N3CC4(CCOCC4)C3)c2F)cc1 [Example 672, 4-(2,6-difluorobenzyl)-2-(4-((3-fluoro-2-(7-oxa-2-azaspiro[3.5]nonan-2-yl)pyridin-4-yl)oxy)phenyl)-2,4-dihydro-3H-1,2,4-triazol-3-one] | < 100 nM
21 | O=c1n(Cc2c(F)cccc2F)cnn1-c1ccc(Oc2c(Cl)ccnc2N2CC3(CCOCC3)C2)cc1 [Example 673, 2-(4-((4-chloro-2-(7-oxa-2-azaspiro[3.5]nonan-2-yl)pyridin-3-yl)oxy)phenyl)-4-(2,6-difluorobenzyl)-2,4-dihydro-3H-1,2,4-triazol-3-one] | > 10000 nM
22 | CCOC1CN(c2ncc(F)c(Oc3ccc(-n4ncn(Cc5c(F)cccc5F)c4=O)cc3)c2F)C1 [Example 674, 4-(2,6-difluorobenzyl)-2-(4-((2-(3-ethoxyazetidin-1-yl)-3,5-difluoropyridin-4-yl)oxy)phenyl)-2,4-dihydro-3H-1,2,4-triazol-3-one] | < 100 nM
23 | CN(C)c1cc(C#N)ccc1Oc1ccc(-n2ncn(Cc3c(F)cccc3F)c2=O)cc1F [Example 676, 4-(4-(4-(2,6-difluorobenzyl)-5-oxo-4,5-dihydro-1H-1,2,4-triazol-1-yl)-2-fluorophenoxy)-3-(dimethylamino)benzonitrile] | < 100 nM

same assay, conditions: Homo sapiens, HT-29, read-out: Activity (IC50 class)

Row | Structure (SMILES) | IC50
24 | Cc1sc(CCO)nc1Oc1ccc(-n2ncn(Cc3c(F)cccc3F)c2=O)cc1F [Example 652, 4-[(2,6-difluorophenyl)methyl]-2-[3-fluoro-4-[2-(2-hydroxyethyl)-5-methyl-thiazol-4-yl]oxy-phenyl]-1,2,4-triazol-3-one] | 100 to 1000 nM
